In patent US20110124501A1, “Active compound combinations” (Bayer CropScience AG, priority 2009, published 2011):
“And” between values parts separate entries of the source, which are not always exact repeats. Identical values can stand only once. Counter-ions that a name gives are not always drawn. Like-named read-outs stand apart in the source and are kept apart here.

Experiments:
Septoria tritici = assay: Septoria tritici-test (wheat)/preventive; format: in vivo; conditions: preventive, evaluated 21 days after inoculation
Leptosphaeria nodorum = Leptosphaeria nodorum test (wheat)/preventive; format: in vivo; conditions: preventive, evaluated 8 days after inoculation
Phytophthora infestans = format: in vivo
Botrytis cinerea = assay: Botrytis test (beans)/preventive
Description: Botrytis Test (Beans)/Preventive
(§1) • Solvent: 24.5 parts by weight of acetone • 24.5 parts by weight of dimethylacetamide • Emulsifier: 1 part by weight of alkylaryl polyglycol ether
After the spray coating has dried on, 2 small pieces of agar covered with growth of Botrytis cinerea are placed on each leaf. The inoculated plants are placed in a darkened chamber at 20° C. and a relative atmospheric humidity of 100%.
2 days after the inoculation, the size of the lesions on the leaves is evaluated.

Sphaerotheca fuliginea = assay: Sphaerotheca test (cucumbers)/preventive; format: in vivo
Venturia inaequalis = assay: Venturia test (apples)/preventive
Description: Venturia Test (Apples)/Preventive
as §1
After the spray coating has dried on, the plants are inoculated with an aqueous conidia suspension of the causal agent of apple scab (Venturia inaequalis) and then remain for 1 day in an incubation cabinet at approximately 20° C. and a relative atmospheric humidity of 100%.
The plants are then placed in a greenhouse at approximately 21° C. and a relative atmospheric humidity of approximately 90%.
The test is evaluated 10 days after the inoculation.

Pyrenophora teres = assay: Pyrenophora teres-test (barley)/preventive; format: in vivo; conditions: preventive, evaluated 8 days after inoculation
Alternaria solani = assay: Alternaria test (tomatoes)/preventive; format: in vivo
[1] = test system: Blumeria graminis fsp. hordei; assay: Blumeria test (barley)/preventive; format: in vivo
Description: After the spray coating has been dried, the plants are dusted with spores of Blumeria graminis fsp. hordei.

Plasmopara viticola = assay: Plasmopara test (grapevines)/preventive; format: in vivo
Puccinia triticina = assay: Puccinia triticina-test (wheat)/preventive; format: in vivo; conditions: preventive, evaluated 8 days after inoculation

Fc1ccc([C@]2(Cn3cncn3)O[C@H]2c2ccccc2Cl)cc1 (racemic) [(1.12), epoxiconazole]
Efficacy in % found (Septoria tritici; 62.5 ppm a.i.): 71% | Efficacy in % found (Leptosphaeria nodorum; 31.25 ppm a.i.): 71%

C[C@@]1(c2ccc(Oc3ccccc3)cc2)OC(=O)N(Nc2ccccc2)C1=O (racemic) [(3.6), famoxadone]
Efficacy in % found (Phytophthora infestans; application rate 0.4 ppm a.i.): 0%

CC1(C(=O)Nc2ccc(O)c(Cl)c2Cl)CCCCC1 [(1.16), fenhexamid]
Efficacy in % found (Botrytis cinerea; application rate 10 ppm a.i.): 0%

O=c1c2cc(F)ccc2nc(-n2cncn2)n1-c1ccc(Cl)cc1Cl [(1.19), fluquinconazole]
Efficacy in % found (Septoria tritici; 62.5 ppm a.i.): 86% | Efficacy in % found (Leptosphaeria nodorum; 31.25 ppm a.i.): 43% | Efficacy in % found (Sphaerotheca fuliginea; application rate 1 ppm a.i.): 78%

Cn1cc(C(=O)Nc2ccc(F)cc2-c2ccc(Cl)c(Cl)c2)c(C(F)F)n1 [(2.2), bixafen]
Efficacy in % found (Venturia inaequalis; application rate 1 ppm a.i.): 64%

O=C(NCCc1ncc(C(F)(F)F)cc1Cl)c1ccccc1C(F)(F)F [(2.6), fluopyram]
Efficacy in % found (Septoria tritici; 31.25 ppm a.i.): 80% | Efficacy in % found (Sphaerotheca fuliginea; application rate 4 ppm a.i.): 0% | Efficacy in % found (Pyrenophora teres; 31.25 ppm a.i.): 88% | Efficacy in % found (Alternaria solani; application rate 1 ppm a.i.): 55% | Efficacy in % found (Venturia inaequalis; application rate 2 ppm a.i.): 28%

CC(C)C1C2CCC1c1c(NC(=O)c3cn(C)nc3C(F)F)cccc12 (stereo not drawn) [(2.10), isopyrazam]
Efficacy in % found (Alternaria solani; application rate 0.5 ppm a.i.): 50% | Efficacy in % found (Venturia inaequalis; application rate 1 ppm a.i.): 49%

Cc1nn(C)c(F)c1C(=O)Nc1ccccc1C(C)CC(C)C (stereo not drawn) [(2.19), penflufen]
Efficacy in % found (Sphaerotheca fuliginea; application rate 4 ppm a.i.): 0% | Efficacy in % found (Alternaria solani; application rate 1 ppm a.i.): 30% | Efficacy in % found (Venturia inaequalis; application rate 4 ppm a.i.): 0% | Efficacy in % found ([1]; application rate 125 ppm a.i.): 67% and 56%

CC(C)CC(C)c1sccc1NC(=O)c1cn(C)nc1C(F)(F)F (stereo not drawn) [(2.20), penthiopyrad]
Efficacy in % found (Alternaria solani; application rate 0.5 ppm a.i.): 53% | Efficacy in % found (Venturia inaequalis; application rate 2 ppm a.i.): 41%

Cn1cc(C(=O)Nc2ccccc2C2CC2C2CC2)c(C(F)F)n1 (stereo not drawn) [(2.21), sedaxane]
Efficacy in % found (Alternaria solani; application rate 1 ppm a.i.): 40% | Efficacy in % found (Venturia inaequalis; application rate 2 ppm a.i.): 69%

Cn1cc(C(=O)Nc2ccccc2-c2cc(F)c(F)c(F)c2)c(C(F)F)n1 [(2.45), 3-(difluoromethyl)-1-methyl-N-(3′,4′,5′-trifluorobiphenyl-2-yl)-1H-pyrazole-4-carboxamide]
Efficacy in % found (Sphaerotheca fuliginea; application rate 2 ppm a.i.): 30%

CO/C=C(/C(=O)OC)c1ccccc1Oc1cc(Oc2ccccc2C#N)ncn1 [(3.2), azoxystrobin]
Efficacy in % found (Leptosphaeria nodorum; 31.25 ppm a.i.): 67% | Efficacy in % found (Leptosphaeria nodorum; 62.5 ppm a.i.): 86% | Efficacy in % found (Sphaerotheca fuliginea; application rate 1 ppm a.i.): 10% | Efficacy in % found (Alternaria solani; application rate 0.25 ppm a.i.): 50%

Cc1ccc(-c2c(Cl)nc(C#N)n2S(=O)(=O)N(C)C)cc1 [(3.3), cyazofamid]
Efficacy in % found (Plasmopara viticola; application rate 0.4 ppm a.i.): 0%

CSC1=N[C@@](C)(c2ccccc2)C(=O)N1Nc1ccccc1 [(3.7), fenamidone]
Efficacy in % found (Phytophthora infestans; application rate 0.2 ppm a.i.): 0%

CO/N=C(/C1=NOCCO1)c1ccccc1Oc1ncnc(Oc2ccccc2Cl)c1F [(3.8), fluoxastrobin]
Efficacy in % found (Septoria tritici; 62.5 ppm a.i.): 71% | Efficacy in % found (Leptosphaeria nodorum; 31.25 ppm a.i.): 71% | Efficacy in % found (Alternaria solani; application rate 2 ppm a.i.): 70% | Efficacy in % found (Venturia inaequalis; application rate 0.5 ppm a.i.): 88%

COC(=O)N(OC)c1ccccc1COc1ccn(-c2ccc(Cl)cc2)n1 [(3.13), pyraclostrobin]
Efficacy in % found (Puccinia triticina; 62.5 ppm a.i.): 63% | Efficacy in % found (Leptosphaeria nodorum; 31.25 ppm a.i.): 57% | Efficacy in % found (Sphaerotheca fuliginea; application rate 1 ppm a.i.): 0%

CON=C(C(=O)OC)c1ccccc1CON=C(C)c1cccc(C(F)(F)F)c1 [(3.17), trifloxystrobin]
Efficacy in % found (Puccinia triticina; 62.5 ppm a.i.): 78% | Efficacy in % found (Sphaerotheca fuliginea; application rate 2 ppm a.i.): 27% | Efficacy in % found (Pyrenophora teres; 62.5 ppm a.i.): 75% | Efficacy in % found (Alternaria solani; application rate 2 ppm a.i.): 60%

CCC(C)(NC(=O)c1cc(Cl)c(C)c(Cl)c1)C(=O)CCl (stereo not drawn) [(4.9), zoxamide]
Efficacy in % found (Plasmopara viticola; application rate 0.4 ppm a.i.): 0%

N#Cc1c(Cl)c(Cl)c(Cl)c(C#N)c1Cl [(5.4), chlorothalonil]
Efficacy in % found (Alternaria solani; application rate 50 ppm a.i.): 24% | Efficacy in % found (Venturia inaequalis; application rate 25 ppm a.i.): 83%

O=C1c2ccccc2C(=O)N1SC(Cl)(Cl)Cl [(5.9), folpet]
Efficacy in % found (Botrytis cinerea; application rate 12.5 ppm a.i.): 11%

[Cl-].[Cu+2].[Cu+2].[OH-].[OH-].[OH-] [(5.15), copper oxychloride]
Efficacy in % found (Alternaria solani; application rate 50 ppm a.i.): 41% | Efficacy in % found (Venturia inaequalis; application rate 50 ppm a.i.): 40%

[Cu+2].[OH-].[OH-] [(5.16), copper hydroxide]
Efficacy in % found (Alternaria solani; application rate 50 ppm a.i.): 47% | Efficacy in % found (Venturia inaequalis; application rate 25 ppm a.i.): 57%

Cc1cc(C)nc(Nc2ccccc2)n1 [(7.7), pyrimethanil]
Efficacy in % found (Botrytis cinerea; application rate 50 ppm a.i.): 11%

COc1ccc(C(=CC(=O)N2CCOCC2)c2ccc(Cl)cc2)cc1OC [(9.2), dimethomorph]
Efficacy in % found (Plasmopara viticola; application rate 0.2 ppm a.i.): 0%

Cc1ccc(C(C)NC(=O)[C@@H](NC(=O)OC(C)C)C(C)C)cc1 (stereo partly drawn) [(9.4), iprovalicarb]
Efficacy in % found (Plasmopara viticola; application rate 0.4 ppm a.i.): 0%

C#CCOc1ccc(CCNC(=O)C(OCC#C)c2ccc(Cl)cc2)cc1OC (stereo not drawn) [(9.5), mandipropamid]
Efficacy in % found (Plasmopara viticola; application rate 0.1 ppm a.i.): 14% | Efficacy in % found (Plasmopara viticola; application rate 0.2 ppm a.i.): 25%

CCCOC(=O)NCCCN(C)C [(10.11), propamocarb-hydrochloride]
Efficacy in % found (Phytophthora infestans; application rate 10 ppm a.i.): 0%

COC(=O)[C@@H](C)N(C(=O)Cc1ccccc1)c1c(C)cccc1C [(12.2), benalaxyl-M]
Efficacy in % found (Plasmopara viticola; application rate 0.2 ppm a.i.): 0% | Efficacy in % found (Plasmopara viticola; application rate 0.4 ppm a.i.): 0%

COCC(=O)N(c1c(C)cccc1C)[C@H](C)C(=O)OC [(12.10), metalaxyl-M]
Efficacy in % found (Plasmopara viticola; application rate 0.4 ppm a.i.): 57%

O=[N+]([O-])c1cc(C(F)(F)F)c(Cl)c([N+](=O)[O-])c1Nc1ncc(C(F)(F)F)cc1Cl [(14.2), fluazinam]
Efficacy in % found (Phytophthora infestans; application rate 0.5 ppm a.i.): 0%

CCCCCCCCc1c(CC)nc2ncnn2c1N [(15.1), ametoctradin]
Efficacy in % found (Phytophthora infestans; application rate 0.5 ppm a.i.): 0%

CCNC(=O)NC(=O)/C(C#N)=N/OC [(15.7), cymoxanil]
Efficacy in % found (Phytophthora infestans; application rate 1 ppm a.i.): 0%

O=C(NCc1ncc(C(F)(F)F)cc1Cl)c1c(Cl)cccc1Cl [(15.17), fluopicolide]
Efficacy in % found (Plasmopara viticola; application rate 0.4 ppm a.i.): 43%

CCO[PH](=O)O [(15.20), fosetyl-Al]
Efficacy in % found (Phytophthora infestans; application rate 10 ppm a.i.): 3%

C#CCCOC(=O)Nc1cccc(CO/N=C(/c2ccccc2)c2nnnn2C)n1 [(15.96), but-3-yn-1-yl {6-[({[(Z)-(1-methyl-1H-tetrazol-5-yl)(phenyl)methylene]amino}oxy)methyl]pyridin-2-yl}carbamate]
Efficacy in % found (Plasmopara viticola; application rate 0.4 ppm a.i.): 46% | Efficacy in % found (Phytophthora infestans; application rate 0.2 ppm a.i.): 53%

O=C(OCc1c(F)cccc1Cl)c1csc(C2CCN(C(=O)Cn3nc(C(F)F)cc3C(F)F)CC2)n1 [(I-16)]
Efficacy in % found (Puccinia triticina; 500 ppm a.i.): 13% | Efficacy in % found (Puccinia triticina; 1000 ppm a.i.): 38% | Efficacy in % found (Plasmopara viticola; application rate 0.2 ppm a.i.): 29% | Efficacy in % found (Plasmopara viticola; application rate 0.4 ppm a.i.): 0% | Efficacy in % found (Leptosphaeria nodorum; 1000 ppm a.i.): 0% | Efficacy in % found (Sphaerotheca fuliginea; application rate 25 ppm a.i.): 30% | Efficacy in % found (Sphaerotheca fuliginea; application rate 50 ppm a.i.): 30% | Efficacy in % found (Pyrenophora teres; 500 ppm a.i.): 0% | Efficacy in % found (Pyrenophora teres; 1000 ppm a.i.): 25% and 13% | Efficacy in % found (Botrytis cinerea; application rate 50 ppm a.i.): 0% | Efficacy in % found (Botrytis cinerea; application rate 200 ppm a.i.): 0% | Efficacy in % found (Alternaria solani; application rate 25 ppm a.i.): 30% | Efficacy in % found (Alternaria solani; application rate 200 ppm a.i.): 47% | Efficacy in % found (Phytophthora infestans; application rate 0.2 ppm a.i.): 70% | Efficacy in % found (Phytophthora infestans; application rate 0.4 ppm a.i.): 61% and 74% | Efficacy in % found (Venturia inaequalis; application rate 200 ppm a.i.): 33% | Efficacy in % found ([1]; application rate 1000 ppm a.i.): 0%

boscalid [(2.3)]
Efficacy in % found (Puccinia triticina; 250 ppm a.i.): 38% | Efficacy in % found (Puccinia triticina; 500 ppm a.i.): 56%

fenpiclonil [(13.1)]
Efficacy in % found (Leptosphaeria nodorum; 500 ppm a.i.): 71% | Efficacy in % found (Pyrenophora teres; 500 ppm a.i.): 88%

fludioxonil [(13.2)]
Efficacy in % found (Leptosphaeria nodorum; 250 ppm a.i.): 43% | Efficacy in % found (Pyrenophora teres; 125 ppm a.i.): 88% | Efficacy in % found (Botrytis cinerea; application rate 10 ppm a.i.): 15%

mancozeb [(5.19)]
Efficacy in % found (Alternaria solani; application rate 12.5 ppm a.i.): 18% | Efficacy in % found (Alternaria solani; application rate 50 ppm a.i.): 76% | Efficacy in % found (Venturia inaequalis; application rate 12.5 ppm a.i.): 53%

phosphorous acid and its salts [(15.62)]
Efficacy in % found (Phytophthora infestans; application rate 10 ppm a.i.): 19%

propiconazole [(1.40)]
Efficacy in % found (Puccinia triticina; 125 ppm a.i.): 78% | Efficacy in % found (Sphaerotheca fuliginea; application rate 2 ppm a.i.): 78%

propineb [(5.23)]
Efficacy in % found (Alternaria solani; application rate 50 ppm a.i.): 53%

prothioconazole [(1.41)]
Efficacy in % found (Septoria tritici; 125 ppm a.i.): 86% | Efficacy in % found (Leptosphaeria nodorum; 62.5 ppm a.i.): 43% | Efficacy in % found (Sphaerotheca fuliginea; application rate 0.5 ppm a.i.): 37%

spiroxamine [(1.46)]
Efficacy in % found (Puccinia triticina; 500 ppm a.i.): 56% | Efficacy in % found ([1]; application rate 250 ppm a.i.): 94%

tebuconazole [(1.47)]
Efficacy in % found (Sphaerotheca fuliginea; application rate 4 ppm a.i.): 67% | Efficacy in % found (Pyrenophora teres; 125 ppm a.i.): 38% | Efficacy in % found (Venturia inaequalis; application rate 4 ppm a.i.): 43%

triadimenol [(1.51)]
Efficacy in % found (Leptosphaeria nodorum; 250 ppm a.i.): 50% and 43%
